# Test results from US8715368B2, “Thiophene azo dyes and laundry care compositions containing the same” (The Procter & Gamble Company, priority 2010, dated 2014).
# Test: Aqueous Partition Value of a dye (water/1-octanol partitioning, absorbance at λmax)
# Type: physicochemical
# Conditions: deionized water/1-octanol 10.0 mL each, APV=(Af/Ai)×100%
# Procedure: Dissolve in deionized water to a final volume of 10.0 mL an amount of dye sufficient to provide a solution absorbance value between 0.25 and 1.0, said absorbance being determined at the dye λmax between 400 nm and 750 nm, using a cuvette with 1.0 cm path length. Measure the absorbance of the sample at the dye λmax in a UV/Vis spectrophotometer, then transfer the entire 10.0 mL solution to a 50.0 mL plastic centrifuge tube. Add 10.0 mL of 1-octanol, cap the tube, and mix vigorously for 30 seconds using a Vortex™ mixer. Leave the tube standing undisturbed until the layers cleanly phase separate.
# Using a transfer pipette, withdraw an aliquot of the aqueous (bottom) layer and transfer it to a cuvette with 1.0 cm path length for spectrophotometric analysis. Analyze the solution as before, and quantify the absorbance loss at λmax as “% of Dye Remaining in Aqueous Layer” as detailed below: % of Dye Remaining in Aqueous Layer=Aqueous Partition Value (APV)=(Af/Ai)×100% wherein Ai is the initial solution absorbance at λmax and Af is the final solution absorbance at λmax. II. Method for Determining Hueing Efficiency for Detergents • a.) Two 25 cm×25 cm fabric swatches of 16 oz white cotton interlock knit fabric (270 g/square meter, brightened with Uvitex BNB fluorescent whitening agent, from Test Fabrics. P.O. Box 26, Weston, Pa., 18643) are obtained. • b.) Prepare two one liter aliquots of tap water containing 1.55 g of AATCC standard heavy duty liquid (HDL) test detergent. • c.) Add a sufficient amount the dye to be tested to one of the aliquots from Step b.) above to produce an aqueous solution absorbance of 1 AU. • d.) Wash one swatch from a.) above in one of the aliquots of water containing 1.55 g of AATCC standard heavy duty liquid (HDL) test detergent and wash the other swatch in the other aliquot. Such washing step should be conducted for 30 minutes at room temperature with agitation. After such washing step separately rinse the swatches in tap water and air dry the swatches in the dark. • e.) After rinsing and drying each swatch, the hueing efficiency, DE*eff, of the dye is assessed by determining the L*, a*, and b* value measurements of each swatch using a Hunter LabScan XE reflectance spectrophotometer with D65 illumination, 10° observer and UV filter excluded. The hueing efficiency of the dye is then calculated using the following equation: DE*eff=((L*c−L*s)^2+(a*c−a*s)^2+(b*c−b*s)^2)^1/2 • wherein the subscripts c and s respectively refer to the L*, a*, and b* values measured for the control, i.e., the fabric sample washed in detergent with no dye, and the fabric sample washed in detergent containing the dye to be screened. III. Method for Determining Wash Removability • a.) Prepare two separate 150 ml aliquots of HDL detergent solution, according to AATCC Test Method 61-2003, Test 2A and containing 1.55 g/liter of the AATCC HDL formula in distilled water. • b.) A 15 cm×5 cm sample of each fabric swatch from the Method for Determining of Hueing Efficiency For Detergents described above is washed in a Launderometer for 45 minutes at 49° C. in 150 ml of a the HDL detergent solution prepared according to Step 11. a.) above. • c.) The samples are rinsed with separate aliquots of rinse water and air dried in the dark, and then L*, a*, and b* value measurements of each swatch are taken using a Hunter LabScan XE reflectance spectrophotometer with D65 illumination, 10° observer and UV filter excluded. The amount of residual coloration is assessed by measuring the DE*res, calculated using the following equation: DE*res=((L*c−L*s)^2+(a*c−a*s)^2+(b*c−b*s)^2)^1/2 • wherein the subscripts c and s respectively refer to the L*, a*, and b* values measured for the control, i.e., the fabric sample initially washed in detergent with no dye, and the fabric sample initially washed in detergent containing the dye to be screened. The wash removal value for the dye is then calculated according to the formula: % removal=100×(1−DE*res/DE*eff). C. Test Results […]
row,Compound,% Dye in Water Layer
1,COc1cc(/N=N/c2sc(C#N)c(C)c2C#N)c(C)cc1N(CCn1cc[n+](C)c1)CCn1cc[n+](C)c1 [Example 1],97%
2,Cc1cc(N(CCn2cc[n+](C)c2)CCn2cc[n+](C)c2)ccc1/N=N/c1sc(C#N)c(C)c1C#N [Example 2],83%
3,CCN(CC[N+](CC)(CC)CC)c1ccc(/N=N/c2sc(C#N)c(C)c2C#N)c(C)c1 [Example 7],15%
4,CCN(CCOCCOCCOCCOCC[N+](CC)(CC)CC)c1ccc(/N=N/c2sc(C#N)c(C)c2C#N)c(C)c1 [Example 12],15%
5,CC[N+](CC)(CC)CCOCCOCCN(CCOCC[N+](CC)(CC)CC)c1cc(C)c(/N=N/c2sc(C#N)c(C)c2C#N)cc1OC [Example 18],49%
6,CC[N+](CC)(CC)CCOCCOCCN(CCOCC[N+](CC)(CC)CC)c1cc(OC)c(/N=N/c2sc(C#N)c(C)c2C#N)cc1OC [Example 19],78%
7,COc1cc(/N=N/c2sc(C#N)c(C)c2C#N)c(C)cc1N(CCOCCOCC[N+](C)(C)CCO)CCOCC[N+](C)(C)CCO [Example 21],75%
8,COc1cc(/N=N/c2sc(C#N)c(C)c2C#N)c(C)cc1N(CCOCCOCC[N+](CCO)(CCO)CCO)CCOCC[N+](CCO)(CCO)CCO [Example 22],56%
9,CC[N+](CC)(CC)CCOCCOCCN(CCOCC[N+](CC)(CC)CC)c1ccc(/N=N/c2sc(C#N)c(C)c2C#N)c(C)c1 [Example 35],66%
10,CC[N+](CC)(CC)CCN(CC[N+](CC)(CC)CC)c1ccc(/N=N/c2sc(C#N)c(C)c2C#N)c(C)c1 [Example 36],94%
